{"source": "patent US20240277698A1", "about": "“METHODS OF USING ALDOSTERONE SYNTHASE INHIBITORS” (CINCOR PHARMA, INC., priority 2021, published 2024)", "key": {"[1]": {"target": "aldosterone synthase (Homo sapiens, UniProt P19099)", "sequence (P19099 25-503, species assumed)": "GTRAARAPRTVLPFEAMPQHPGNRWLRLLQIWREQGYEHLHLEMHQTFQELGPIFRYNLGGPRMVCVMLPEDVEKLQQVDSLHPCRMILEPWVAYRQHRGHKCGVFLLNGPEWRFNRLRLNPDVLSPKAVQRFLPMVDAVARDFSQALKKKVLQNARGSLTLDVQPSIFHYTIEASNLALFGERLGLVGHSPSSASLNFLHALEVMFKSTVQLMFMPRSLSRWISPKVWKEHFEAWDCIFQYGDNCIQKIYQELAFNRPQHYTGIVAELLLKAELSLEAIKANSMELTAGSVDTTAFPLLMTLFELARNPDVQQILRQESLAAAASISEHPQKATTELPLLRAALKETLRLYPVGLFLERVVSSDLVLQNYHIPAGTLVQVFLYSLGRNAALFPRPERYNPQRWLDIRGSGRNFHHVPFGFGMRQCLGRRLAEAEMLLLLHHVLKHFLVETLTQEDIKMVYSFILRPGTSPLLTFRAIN", "conditions": "cited from earlier work"}, "[2]": {"conditions": "Treatment B: single 1000 mg metformin + 10 mg Compound 1"}, "[3]": {"experiment": "Metformin drug-drug interaction study: urine pharmacokinetics of metformin", "format": "in vivo, human"}, "[4]": {"experiment": "clinical", "conditions": "human, in vivo, 1000 mg; for AUC(0-inf): Metformin plasma AUC0-inf; for AUC(0-t): Metformin plasma AUC0-t"}, "[5]": {"experiment": "Metformin drug-drug interaction study: safety (TEAEs)", "conditions": "for Any TEAEs leading to death, number of events / Any TEAEs leading to death, subjects: Treatment A = 1000 mg metformin alone (N = 26), Treatment B = 1000 mg metformin + 10 mg Compound 1 (N = 27)", "protocol": "Safety was assessed throughout the study based on adverse events (AEs), physical examinations, weight measurements, electrocardiograms (ECGs), vital signs assessments (seated and orthostatic), and clinical laboratory evaluations.\nThe following safety assessments were performed: • AEs and SAEs; • Clinical laboratory test assessments; • Vital signs including heart rate, blood pressure (BP) (including orthostatic BP when indicated), respiration rate, and temperature; • 12-lead ECGs; • Physical examinations; and • Height, weight, and BMI.\nSafety analyses were performed throughout the study based on the Safety Population. Safety was evaluated through assessments of AEs, physical examinations, ECGs, weight measurements, vital signs assessments (seated and orthostatic), and clinical laboratory evaluations.\nA TEAE was defined as an AE that emerged, having been absent prior to the study, or an AE that worsened in severity after the first dose of any drug in this study. TEAEs were summarized by MedDRA SOC and PT for each treatment and overall. The number and percentage of subjects experiencing TEAEs and the number of TEAEs were tabulated. Subjects reporting more than 1 AE for a given MedDRA PT were counted only once for that term using the most severe incident. Subjects reporting more than 1 type of event within a SOC were counted only once for that SOC. The Safety Population was used for all the safety analyses."}, "[6]": {"conditions": "Treatment A: single 1000 mg metformin alone"}, "[7]": {"conditions": "Treatment B: single 1000 mg metformin + 10 mg Compound 1"}, "[8]": {"conditions": "Treatment B: 10 mg Compound 1 with single 1000 mg metformin"}}, "note": "Where two headings read alike, the source gives them in different places."}
{"molecule": "N#Cc1ccc([C@H]2CCc3cncn32)c(F)c1", "note": "[LCI1699]", "values": [{"measurement": "specificity for aldosterone synthase", "setting": "[1]; clinical trials by Novartis, discontinued", "value": "lack of specificity for aldosterone synthase"}, {"measurement": "ACTH associated with aldosterone reductions", "setting": "[1]; previously observed", "value": "corresponding increase in ACTH"}, {"measurement": "increase in predose 11-deoxycorticosterone levels", "setting": "[1]; previously observed", "value": "up to 10 fold"}]}
{"molecule": "CN(C)C(=N)N=C(N)N", "note": "[metformin]", "values": [{"measurement": "Metformin plasma AUC0-t, Geom LS Mean", "setting": "[2]", "value": 10683.45, "unit": "ng·h/mL"}, {"measurement": "metformin dose excreted in the urine", "setting": "[3]; 1000 mg metformin, presence and absence of Compound 1", "value": "approximately 30%"}, {"measurement": "Metformin urine Fe0-3, Mean (CV %)", "setting": "[3]; [6]", "value": "11.76 (33.0) %"}, {"measurement": "Metformin urine Fe0-6, Mean (CV %)", "setting": "[3]; [6]", "value": "21.50 (27.2) %"}, {"measurement": "Metformin urine Fe0-9, Mean (CV %)", "setting": "[3]; [6]", "value": "25.40 (28.1) %"}, {"measurement": "Metformin urine Fe0-12, Mean (CV %)", "setting": "[3]; [6]", "value": "27.42 (26.2) %"}, {"measurement": "Metformin urine Fe0-18, Mean (CV %)", "setting": "[3]; [6]", "value": "29.11 (25.6) %"}, {"measurement": "Metformin urine Fe0-24, Mean (CV %)", "setting": "[3]; [6]", "value": "29.82 (25.1) %"}, {"measurement": "Metformin urine Fe0-30, Mean (CV %)", "setting": "[3]; [6]", "value": "30.21 (24.9) %"}, {"measurement": "Metformin urine Fe0-36, Mean (CV %)", "setting": "[3]; [6]", "value": "30.50 (24.7) %"}, {"measurement": "Metformin urine Fe0-48, Mean (CV %)", "setting": "[3]; [6]", "value": "30.90 (24.5) %"}, {"measurement": "Metformin urine Fe0-72, Mean (CV %)", "setting": "[3]; [6]", "value": "31.23 (24.2) %"}, {"measurement": "Metformin urine Fe0-3, Mean (CV %)", "setting": "[3]; [7]", "value": "10.47 (36.6) %"}, {"measurement": "Metformin urine Fe0-6, Mean (CV %)", "setting": "[3]; [7]", "value": "19.06 (32.4) %"}, {"measurement": "Metformin urine Fe0-9, Mean (CV %)", "setting": "[3]; [7]", "value": "23.11 (33.8) %"}, {"measurement": "Metformin urine Fe0-12, Mean (CV %)", "setting": "[3]; [7]", "value": "25.07 (32.5) %"}, {"measurement": "Metformin urine Fe0-18, Mean (CV %)", "setting": "[3]; [7]", "value": "26.52 (31.3) %"}, {"measurement": "Metformin urine Fe0-24, Mean (CV %)", "setting": "[3]; [7]", "value": "27.21 (30.6) %"}, {"measurement": "Metformin urine Fe0-30, Mean (CV %)", "setting": "[3]; [7]", "value": "27.62 (30.3) %"}, {"measurement": "Metformin urine Fe0-36, Mean (CV %)", "setting": "[3]; [7]", "value": "27.87 (30.0) %"}, {"measurement": "Metformin urine Fe0-48, Mean (CV %)", "setting": "[3]; [7]", "value": "28.25 (29.4) %"}, {"measurement": "Metformin urine Fe0-72, Mean (CV %)", "setting": "[3]; [7]", "value": "28.72 (28.9) %"}, {"measurement": "AUC(0-inf)", "setting": "[4]; Geom LS Mean", "value": 11100, "unit": "ng·h/mL"}, {"measurement": "AUC(0-inf)", "setting": "[4]; Mean (SD)", "value": 11200, "unit": "ng·h/mL"}, {"measurement": "AUC(0-t)", "setting": "[4]; Geom LS Mean", "value": 11000, "unit": "ng·h/mL"}, {"measurement": "AUC(0-t)", "setting": "[4]; Mean (SD)", "value": 11200, "unit": "ng·h/mL"}, {"measurement": "Any TEAEs leading to death, number of events", "setting": "[5]", "value": 0, "unit": "e"}, {"measurement": "Any TEAEs leading to death, subjects", "setting": "[5]", "value": "0 (0.0) n (%)"}, {"measurement": "subjects experiencing diarrhoea", "setting": "[5]; human, in vivo", "value": "3 (11.5%)"}, {"measurement": "subjects experiencing nausea", "setting": "[5]; human, in vivo", "value": "1 (3.7%)"}, {"measurement": "subjects experiencing upper abdominal pain", "setting": "[5]; human, in vivo", "value": "One (3.7%)"}]}
{"molecule": "CCC(=O)NC1CCCc2c(-c3ccc4c(c3)CCC(=O)N4C)cncc21", "note": "(stereo not drawn) [Compound 1, N-(4-(1-methyl-2-oxo-1,2,3,4-tetrahydroquinolin-6-yl)-5,6,7,8-tetrahydroisoquinolin-8-yl)propionamide]", "values": [{"measurement": "Compound 1 plasma AUC%extrap, Mean (SD)", "setting": "[8]", "value": "9.9 (5.2) %"}, {"measurement": "Compound 1 plasma λz, Mean (SD)", "setting": "[8]", "value": "0.033 (0.008) 1/h"}, {"measurement": "Tmax", "setting": "human, plasma", "value": 1.3, "unit": "h"}, {"measurement": "AUC(0-t)", "setting": "human, plasma, Compound 1 plasma AUC0-24, Mean (SD), Treatment B: 10 mg Compound 1 with single 1000 mg metformin", "value": 1660, "unit": "ng·h/mL"}, {"measurement": "AUC(0-t)", "setting": "human, plasma, Compound 1 plasma AUC0-72, Mean (SD), Treatment B: 10 mg Compound 1 with single 1000 mg metformin", "value": 2870, "unit": "ng·h/mL"}, {"measurement": "effect on metformin renal clearance", "setting": "[3]; 10 mg Compound 1 2 hours prior to metformin dosing", "value": "did not result in a reduction"}, {"measurement": "Any TEAEs leading to death, number of events", "setting": "[5]", "value": 0, "unit": "e"}, {"measurement": "Any TEAEs leading to death, subjects", "setting": "[5]", "value": "0 (0.0) n (%)"}]}
